{
  "source": "patent US20210032257A1",
  "about": "“(E)-1-(4-(DIMETHYLAMINO)BUT-2-ENOYL)PYRROLIDIN-3-YL 4-((3-ISOPROPYL-5-METHYLPYRAZOLO[1,5-A]PYRIMIDIN-7-YL)AMINO)PIPERIDINE-1-CARBOXYLATE FOR INHIBITING CDK7” (Eli Lilly and Company, priority 2017, published 2021)",
  "assay_in_all_cases": "Biomarker study proliferation (CellTiter-Glo)",
  "assay_type_in_all_cases": "cell-based",
  "key": {"A673": {"test_system": "A673", "summary_of_the_method": "(§1)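 First, cells are plated at 5000 per well and left overnight at 37 °C. Next, compound is added as a 10-point threefold series (10× dosing plate to 1× final). Then plates incubate 7 days, and CellTiter-Glo luminescence is measured.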"}, "C33A": {"test_system": "C33A", "summary_of_the_method": "as §1"}, "CACO2": {"test_system": "CACO2", "summary_of_the_method": "as §1"}, "DMS114": {"test_system": "DMS114", "summary_of_the_method": "as §1"}, "DU145": {"test_system": "DU145", "summary_of_the_method": "as §1"}, "HCC1569": {"test_system": "HCC1569", "summary_of_the_method": "as §1"}, "KE97": {"test_system": "KE97", "summary_of_the_method": "as §1"}, "KYSE520": {"test_system": "KYSE520", "summary_of_the_method": "as §1"}, "NCIH1975": {"test_system": "NCIH1975", "summary_of_the_method": "as §1"}, "NCIH2196": {"test_system": "NCIH2196", "summary_of_the_method": "as §1"}, "NCIH226": {"test_system": "NCIH226", "summary_of_the_method": "as §1"}, "PLCPRF5": {"test_system": "PLCPRF5", "summary_of_the_method": "as §1"}, "SH10TC": {"test_system": "SH10TC", "summary_of_the_method": "as §1"}, "SNU387": {"test_system": "SNU387", "summary_of_the_method": "as §1"}, "SNU869": {"test_system": "SNU869", "summary_of_the_method": "as §1"}, "SW900": {"test_system": "SW900", "summary_of_the_method": "as §1"}, "TOV21G": {"test_system": "TOV21G", "summary_of_the_method": "as §1"}, "U87MG": {"test_system": "U87MG", "summary_of_the_method": "as §1"}},
  "data": [
    {"smiles": "Cc1cc(NC2CCN(C(=O)O[C@H]3CCN(C(=O)/C=C/CN(C)C)C3)CC2)n2ncc(C(C)C)c2n1", "note": "[Example 1, [(3S)-1-[(E)-4-(dimethylamino)but-2-enoyl]pyrrolidin-3-yl] 4-[(3-isopropyl-5-methyl-pyrazolo[1,5-a]pyrimidin-7-yl)amino]piperidine-1-carboxylate]", "values": [
      {"measurement": "Anti-proliferation effect % Inh.", "setting": "A673; A673, BONE, 7 days", "value": 96, "unit": "%"},
      {"measurement": "Anti-proliferation effect Outcome", "setting": "A673; A673, BONE, 7 days", "value": "Cytotoxic (cytotoxic (IC50<1 μM and % inhibition ≥70%))"},
      {"measurement": "IC50", "setting": "A673; Homo sapiens, A673, 168 h, read-out: Anti-proliferation effect IC50", "value": 14, "unit": "nM"},
      {"measurement": "Anti-proliferation effect % Inh.", "setting": "C33A; C33A, CERVIX, 7 days", "value": 79, "unit": "%"},
      {"measurement": "Anti-proliferation effect Outcome", "setting": "C33A; C33A, ENDOMETRIUM, 7 days", "value": "Cytotoxic (cytotoxic (IC50<1 μM and % inhibition ≥70%))"},
      {"measurement": "IC50", "setting": "C33A; Homo sapiens, C-33-A, 168 h, read-out: Anti-proliferation effect IC50", "value": 14, "unit": "nM"},
      {"measurement": "Anti-proliferation effect % Inh.", "setting": "CACO2; CACO2, INTESTINE, 7 days", "value": 60, "unit": "%"},
      {"measurement": "Anti-proliferation effect Outcome", "setting": "CACO2; CACO2, INTESTINE, 7 days", "value": "Cytostatic (cytostatic (IC50<1 μM and % inhibition <70%))"},
      {"measurement": "IC50", "setting": "CACO2; Homo sapiens, Caco-2, 168 h, read-out: Anti-proliferation effect IC50", "value": 189, "unit": "nM"},
      {"measurement": "Anti-proliferation effect % Inh.", "setting": "DMS114; DMS114, LUNG, 7 days", "value": 65, "unit": "%"},
      {"measurement": "Anti-proliferation effect Outcome", "setting": "DMS114; DMS114, LUNG, 7 days", "value": "Cytostatic (cytostatic (IC50<1 μM and % inhibition <70%))"},
      {"measurement": "IC50", "setting": "DMS114; Homo sapiens, DMS-114, 168 h, read-out: Anti-proliferation effect IC50", "value": 14, "unit": "nM"},
      {"measurement": "Anti-proliferation effect % Inh.", "setting": "DU145; DU145, PROSTATE, 7 days", "value": 74, "unit": "%"},
      {"measurement": "Anti-proliferation effect Outcome", "setting": "DU145; DU145, PROSTATE, 7 days", "value": "Cytotoxic (cytotoxic (IC50<1 μM and % inhibition ≥70%))"},
      {"measurement": "IC50", "setting": "DU145; Homo sapiens, DU-145, 168 h, read-out: Anti-proliferation effect IC50", "value": 36, "unit": "nM"},
      {"measurement": "Anti-proliferation effect % Inh.", "setting": "HCC1569; HCC1569, BREAST, 7 days", "value": 45, "unit": "%"},
      {"measurement": "Anti-proliferation effect Outcome", "setting": "HCC1569; HCC1569, BREAST, 7 days", "value": "Cytostatic (cytostatic (IC50<1 μM and % inhibition <70%))"},
      {"measurement": "IC50", "setting": "HCC1569; Homo sapiens, HCC1569, 168 h, read-out: Anti-proliferation effect IC50", "value": 67, "unit": "nM"},
      {"measurement": "Anti-proliferation effect % Inh.", "setting": "KE97; KE97, BLOOD, 7 days", "value": 58, "unit": "%"},
      {"measurement": "Anti-proliferation effect Outcome", "setting": "KE97; KE97, BLOOD, 7 days", "value": "Cytostatic (cytostatic (IC50<1 μM and % inhibition <70%))"},
      {"measurement": "IC50", "setting": "KE97; KE-97, 168 h, read-out: Anti-proliferation effect IC50", "value": 158, "unit": "nM"},
      {"measurement": "IC50", "setting": "KYSE520; Homo sapiens, KYSE-520, 168 h, read-out: Anti-proliferation effect IC50", "value": "> 10000", "unit": "nM"},
      {"measurement": "Anti-proliferation effect % Inh.", "setting": "KYSE520; KYSE520, OESOPHAGUS, 7 days", "value": 50, "unit": "%"},
      {"measurement": "Anti-proliferation effect Outcome", "setting": "KYSE520; KYSE520, OESOPHAGUS, 7 days", "value": "Insensitive (insensitive (IC50≥1 μM))"},
      {"measurement": "IC50", "setting": "NCIH1975; Homo sapiens, NCI-H1975, 168 h, read-out: Anti-proliferation effect IC50", "value": 21, "unit": "nM"},
      {"measurement": "Anti-proliferation effect % Inh.", "setting": "NCIH1975; NCIH1975, LUNG, 7 days", "value": 90, "unit": "%"},
      {"measurement": "Anti-proliferation effect Outcome", "setting": "NCIH1975; NCIH1975, LUNG, 7 days", "value": "Cytotoxic (cytotoxic (IC50<1 μM and % inhibition ≥70%))"},
      {"measurement": "IC50", "setting": "NCIH2196; Homo sapiens, NCI-H2196, 168 h, read-out: Anti-proliferation effect IC50", "value": 123, "unit": "nM"},
      {"measurement": "Anti-proliferation effect % Inh.", "setting": "NCIH2196; NCIH2196, LUNG, 7 days", "value": 63, "unit": "%"},
      {"measurement": "Anti-proliferation effect Outcome", "setting": "NCIH2196; NCIH2196, LUNG, 7 days", "value": "Cytostatic (cytostatic (IC50<1 μM and % inhibition <70%))"},
      {"measurement": "IC50", "setting": "NCIH226; Homo sapiens, NCI-H226, 168 h, read-out: Anti-proliferation effect IC50", "value": 1200, "unit": "nM"},
      {"measurement": "Anti-proliferation effect % Inh.", "setting": "NCIH226; NCIH226, LUNG, 7 days", "value": 43, "unit": "%"},
      {"measurement": "Anti-proliferation effect Outcome", "setting": "NCIH226; NCIH226, LUNG, 7 days", "value": "Insensitive (insensitive (IC50≥1 μM))"},
      {"measurement": "IC50", "setting": "PLCPRF5; Homo sapiens, PLC-PRF-5, 168 h, read-out: Anti-proliferation effect IC50", "value": "> 10000", "unit": "nM"},
      {"measurement": "Anti-proliferation effect % Inh.", "setting": "PLCPRF5; PLCPRF5, LIVER, 7 days", "value": 41, "unit": "%"},
      {"measurement": "Anti-proliferation effect Outcome", "setting": "PLCPRF5; PLCPRF5, LIVER, 7 days", "value": "Insensitive (insensitive (IC50≥1 μM))"},
      {"measurement": "Anti-proliferation effect % Inh.", "setting": "SH10TC; SH10TC, STOMACH, 7 days", "value": 58, "unit": "%"},
      {"measurement": "Anti-proliferation effect Outcome", "setting": "SH10TC; SH10TC, STOMACH, 7 days", "value": "Cytostatic (cytostatic (IC50<1 μM and % inhibition <70%))"},
      {"measurement": "IC50", "setting": "SH10TC; SH-10-TC, 168 h, read-out: Anti-proliferation effect IC50", "value": 147, "unit": "nM"},
      {"measurement": "IC50", "setting": "SNU387; Homo sapiens, SNU-387, 168 h, read-out: Anti-proliferation effect IC50", "value": "> 10000", "unit": "nM"},
      {"measurement": "Anti-proliferation effect % Inh.", "setting": "SNU387; SNU387, LIVER, 7 days", "value": 12, "unit": "%"},
      {"measurement": "Anti-proliferation effect Outcome", "setting": "SNU387; SNU387, LIVER, 7 days", "value": "Insensitive (insensitive (IC50≥1 μM))"},
      {"measurement": "IC50", "setting": "SNU869; 168 h, read-out: Anti-proliferation effect IC50", "value": 52, "unit": "nM"},
      {"measurement": "Anti-proliferation effect % Inh.", "setting": "SNU869; SNU869, BILIARY, 7 days", "value": 60, "unit": "%"},
      {"measurement": "Anti-proliferation effect Outcome", "setting": "SNU869; SNU869, BILIARY, 7 days", "value": "Cytostatic (cytostatic (IC50<1 μM and % inhibition <70%))"},
      {"measurement": "IC50", "setting": "SW900; Homo sapiens, SW900, 168 h, read-out: Anti-proliferation effect IC50", "value": 3810, "unit": "nM"},
      {"measurement": "Anti-proliferation effect % Inh.", "setting": "SW900; SW900, LUNG, 7 days", "value": 13, "unit": "%"},
      {"measurement": "Anti-proliferation effect Outcome", "setting": "SW900; SW900, LUNG, 7 days", "value": "Insensitive (insensitive (IC50≥1 μM))"},
      {"measurement": "IC50", "setting": "TOV21G; Homo sapiens, 168 h, read-out: Anti-proliferation effect IC50", "value": 61, "unit": "nM"},
      {"measurement": "Anti-proliferation effect % Inh.", "setting": "TOV21G; OVARY, 7 days", "value": 73, "unit": "%"},
      {"measurement": "Anti-proliferation effect Outcome", "setting": "TOV21G; OVARY, 7 days", "value": "Cytotoxic (cytotoxic (IC50<1 μM and % inhibition ≥70%))"},
      {"measurement": "IC50", "setting": "U87MG; Homo sapiens, U-87 MG, 168 h, read-out: Anti-proliferation effect IC50", "value": 7360, "unit": "nM"},
      {"measurement": "Anti-proliferation effect % Inh.", "setting": "U87MG; U87MG, CNS, 7 days", "value": "−5", "unit": "%"},
      {"measurement": "Anti-proliferation effect Outcome", "setting": "U87MG; U87MG, CNS, 7 days", "value": "Insensitive (insensitive (IC50≥1 μM))"}
    ]}
  ]
}
